Experimental data from patent publication US8445636B2, “Antimicrobial and anticancer lipopeptides” (Yeda Research & Development Co. Ltd., priority 2003, dated 2013).
Converted amounts (≈) assume the structure as drawn. Like-named read-outs stand apart in the source and are kept apart here.

Experiments:
Test in all cases: microbe, parasite or virus in culture
Type in all cases: cell-based
[1] = test system: Aspergillus fumigatus ATCC 26430; details: Aspergillus fumigatus, ATCC26430
[2] = test system: Cryptococcus neoformans ATCC MYA-422; details: Cryptococcus neoformans; Table 9, short lipopeptides; pH 7.4; mean of 3 experiments, standard deviation of 25%; read-out: Minimal Inhibitory Concentration, Cyrptococcus neoformans (ATCC MYA-422)
[3] = test system: Cryptococcus neoformans ATCC 66031; details: Cryptococcus neoformans, ATCC66031
Protocol: (§1) The antifungal activity of the lipopeptides was examined in sterile 96-well plates (Nunc F96 microtiter plates) in a final volume of 200 μL as follows: 100 µl of a suspension containing fungi at a concentration of 1×10^4 Colony-Forming Units (CFU)/ml in culture medium (RPMI 1640, 0.165 M MOPS with L-glutamine, without NaHCO3) at pH 7.4 or pH 5.5 (adjustment of the pH was done by diluted solutions of HCl and NaOH) were added to 100 μl of water containing the peptide in serial 2-fold dilutions in water. The fungi were incubated in the presence of the lipopeptides for 24-48 h at 35° C. in a Binder KB115 incubator under agitation. Growth inhibition was determined by measuring the absorbance at 620 nm with a Microplate autoreader E1309 (Bio-Tek Instruments). Antifungal activity is expressed as the minimal inhibitory concentration (MIC), the concentration at which 100% inhibition of fungi growth was observed after the incubation time mentioned above. The fungi used were: Aspergillus niger ATCC 9642, Candida albicans ATCC 10231 and Cryptococcus neoformans ATCC 66031. If not indicated otherwise, the fungi growth was detected at pH 7.4.

[4] = test system: Candida albicans ATCC 10231; details: Candida albicans, ATCC10231
Protocol: as §1

MIC ([1]; Table 9, short lipopeptides, pH 7.4, mean of 3 experiments, standard deviation of 25%, read-out: Minimal Inhibitory Concentration, Aspergillus Fomigatus (ATCC 26430)): 1.25 µM (≈ 1.16 µg/mL) | MIC ([1]; Table 12, with serum, pH 7.4, read-out: Minimal inhibitory concentrations, A. Fumig. With serum): < 0.78 µM | MIC ([1]; Table 12, without serum, pH 7.4, read-out: Minimal inhibitory concentrations, A. Fumig. Without serum): 2.34 µM (≈ 2.16 µg/mL) | MIC ([1]; Table 13, pH 5.5, with serum, read-out: Minimal inhibitory concentrations, A. Fumig. With serum): < 0.78 µM | MIC ([1]; Table 13, pH 5.5, without serum, read-out: Minimal inhibitory concentrations, A. Fumig. Without serum): 3.12 µM (≈ 2.89 µg/mL) | MIC [2]: 0.312 µM (≈ 0.288 µg/mL) | MIC ([3]; Table 12, with serum, pH 7.4, read-out: Minimal inhibitory concentrations, C. Neofor. With serum): < 0.78 µM | MIC ([3]; Table 12, without serum, pH 7.4, read-out: Minimal inhibitory concentrations, C. Neofor. Without serum): < 0.78 µM | MIC ([3]; Table 13, pH 5.5, with serum, read-out: Minimal inhibitory concentrations, C. Neofor. With serum): < 0.78 µM | MIC ([3]; Table 13, pH 5.5, without serum, read-out: Minimal inhibitory concentrations, C. Neofor. Without serum): 3.12 µM (≈ 2.89 µg/mL) | MIC ([4]; Table 9, short lipopeptides, pH 7.4, mean of 3 experiments, standard deviation of 25%, read-out: Minimal Inhibitory Concentration, Candida Albicans (ATCC 10231)): 0.625 µM (≈ 0.578 µg/mL) | MIC ([4]; Table 12, with serum, pH 7.4, read-out: Minimal inhibitory concentrations, C. Albicans With serum): 0.78 µM (≈ 0.721 µg/mL) | MIC ([4]; Table 12, without serum, pH 7.4, read-out: Minimal inhibitory concentrations, C. Albicans Without serum): 3.12 µM (≈ 2.89 µg/mL) | MIC ([4]; Table 13, pH 5.5, with serum, read-out: Minimal inhibitory concentrations, C. Albicans With serum): 0.78 µM (≈ 0.721 µg/mL) | MIC ([4]; Table 13, pH 5.5, without serum, read-out: Minimal inhibitory concentrations, C. Albicans Without serum): 9.38 µM (≈ 8.66 µg/mL)
SMILES: C[C@@H]1[C@H](O)[C@@H](C)/C=C/C=C/C=C/C=C/C=C/C=C/C=C/[C@H](O[C@@H]2O[C@H](C)[C@@H](O)[C@H](N)[C@@H]2O)C[C@@H]2O[C@](O)(C[C@@H](O)C[C@@H](O)[C@H](O)CC[C@@H](O)C[C@@H](O)CC(=O)O[C@H]1C)C[C@H](O)[C@H]2C(=O)O [Amphotericin, reference compound]
